This is an account of results in patent publication US8114909B2, “Treating or preventing restless legs syndrome using prodrugs of GABA analogs” (XenoPort, Inc., priority 2003, dated 2012).

This series is described as follows: drug release from the sustained release oral osmotic dosage form in artificial gastric fluid. The class given is physicochemical. Particulars: release of prodrug from the osmotic sustained release dosage form of Example 1 (700 mg drug composition, one 10 mil passageway). On the procedure: The bilayered arrangements next are coated with a semipermeable wall. The wall-forming composition comprises 100% cellulose acetate having a ˜40% acetyl content. The polymer is dissolved in 100% acetone to make a 4% solid solution. The wall forming composition is sprayed at 26 grams/min onto and around the bilayer cores in a tablet coater until a dry weight of 90 mg/core is achieved. Next, one 10 mil (0.254 mm) exit passageway is mechanically drilled through the semipermeable wall to connect the drug layer with the exterior of the dosage system. The residual solvent is removed by first drying for 120 hours at 50° C. and 30% relative humidity, then the systems are dried for 2 hours at 50° C. to remove excess moisture. The drug dosage form produced by this process provides: ˜90 wt % 1-{[(α-isobutanoyloxyethoxy)carbonyl]aminomethyl}-1-cyclohexane acetic acid, 4 wt % hydroxypropylmethylcellulose of 11,200 molecular weight, 4 wt % polyethylene oxide of 5,000,000 molecular weight and 1 wt % magnesium stearate in the drug layer. The push composition comprises 63.7 wt % polyethylene oxide of 7,500,000 molecular weight, 30 wt % sodium chloride, 5 wt % hydroxypropylmethylcellulose of 11,200 molecular weight, 1 wt % red ferric oxide, 0.25 wt % magnesium stearate, and 0.075 wt % of butylated hydroxytoluene. The wall comprises 100 wt % cellulose acetate comprising a ˜40% acetyl content. […]

Turning to `CC(OC(=O)NCC1(CC(=O)O)CCCCC1)OC(=O)C(C)C` (stereo not drawn) [1-{[(α-isobutanoyloxyethoxy)carbonyl]aminomethyl}-1-cyclohexane acetic acid], the release rate is more than 20 mg/h.
